The source of these data is patent US8242174B2 (priority 2007, dated 2012).

Structures are written as SMILES. Bounds are passed on as bounds.

The target in this experiment is Lethal factor protease (Bacillus anthracis, UniProt P15917). The experiment is described as follows: biochemical.
Chain of Lethal factor protease (P15917 34-809 limits assumed): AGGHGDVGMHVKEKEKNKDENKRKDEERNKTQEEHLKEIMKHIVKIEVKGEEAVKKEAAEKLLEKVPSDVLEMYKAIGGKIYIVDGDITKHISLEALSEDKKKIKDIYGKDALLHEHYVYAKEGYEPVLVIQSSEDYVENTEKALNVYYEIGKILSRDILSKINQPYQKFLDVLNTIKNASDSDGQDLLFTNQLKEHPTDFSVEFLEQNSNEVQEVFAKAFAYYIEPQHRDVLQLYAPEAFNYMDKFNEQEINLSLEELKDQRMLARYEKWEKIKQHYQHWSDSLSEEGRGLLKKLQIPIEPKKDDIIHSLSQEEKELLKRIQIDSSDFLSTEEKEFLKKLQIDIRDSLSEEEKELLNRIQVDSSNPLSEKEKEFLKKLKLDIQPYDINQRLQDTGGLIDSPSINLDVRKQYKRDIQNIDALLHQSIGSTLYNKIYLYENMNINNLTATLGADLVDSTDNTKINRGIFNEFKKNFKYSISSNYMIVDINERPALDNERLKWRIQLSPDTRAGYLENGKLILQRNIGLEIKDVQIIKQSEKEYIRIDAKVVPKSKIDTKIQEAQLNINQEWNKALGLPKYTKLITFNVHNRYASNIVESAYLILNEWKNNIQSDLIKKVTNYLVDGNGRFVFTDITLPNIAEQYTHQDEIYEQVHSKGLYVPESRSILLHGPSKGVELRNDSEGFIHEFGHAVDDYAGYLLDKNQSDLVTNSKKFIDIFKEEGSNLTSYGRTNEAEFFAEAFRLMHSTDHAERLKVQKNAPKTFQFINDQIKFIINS

For the compound `Cc1cccc(CNCCCC[C@@H](Nc2cc(C)c(F)c(C)c2)C(=O)NO)c1` [Compound 167698, (R)-2-(4-Fluoro-3,5-dimethyl-phenylamino)-6-(3-methyl-benzylamino)-hexanoic acid hydroxyamide], affinity was put at a Ki of 160 nM.

For `Cc1cc(N[C@H](CO)C(=O)NO)cc(C)c1F` [Compound 167485, (R)-2-(4-Fluoro-3,5-dimethyl-phenylamino)-3,N-dihydroxy-propionamide], the affinity corresponds to a Ki of 590 nM.

For `CCCC[C@@H](Nc1cc(C)c(F)c(C)c1)C(=O)NO` [Compound 167294, (R)-2-(4-Fluoro-3,5-dimethyl-phenylamino)-hexanoic acid hydroxyamide], the Ki (as a rule, the equilibrium dissociation constant of an inhibitor or competing ligand from its target) came out at 520 nM.

Take `CCCCC(Nc1cc(Br)cc(Br)c1)C(=O)NO` (centres unmarked) [Compound 167843, 2-(3,5-Dibromo-phenylamino)-hexanoic acid hydroxyamide]: the affinity corresponds to a Ki of 52300 nM.

In turn, `Cc1cc(N[C@H](CC(C)C)C(=O)NO)cc(C)c1F` [Compound 167402, (R)-2-(4-Fluoro-3,5-dimethyl-phenylamino)-4-methyl-pentanoic acid hydroxyamide] displayed a Ki of 670 nM.

With `Cc1cc(S(=O)(=O)NCCCC[C@@H](Nc2cc(C)c(F)c(C)c2)C(=O)NO)ccc1F` [Compound 167590, (R)-2-(4-Fluoro-3,5-dimethyl-phenylamino)-6-(4-fluoro-3-methyl-benzenesulfonylamino)-hexanoic acid hydroxyamide], the Ki came out at 250 nM.

Compound `Cc1cc(N[C@H](CCCCNCc2cnccn2)C(=O)NO)ccc1F` [Compound 168168, (R)-2-(4-Fluoro-3-methyl-phenylamino)-6-[(pyrazin-2-ylmethyl)-amino]-hexanoic acid hydroxyamide] yielded a Ki of 630 nM.

In turn, `CC[C@@H](Nc1cc(C)c(F)c(C)c1)C(=O)NO` [Compound 167450, (R)-2-(4-Fluoro-3,5-dimethyl-phenylamino)-N-hydroxy-butyramide] gave a Ki of 670 nM.

As for `CCCCC(Nc1cccc(C(C)C)c1)C(=O)NO` (centres unmarked) [Compound 167183, 2-(3-Isopropyl-phenylamino)-hexanoic acid hydroxyamide], the Ki is > 300000 nM.

As to `CCCCC(Nc1cc(C)cc(C)c1)C(=O)NO` (centres unmarked) [Compound 167226, 2-(3,5-Dimethyl-phenylamino)-hexanoic acid hydroxyamide], the Ki came to 7400 nM.

In the case of `CCCCC(Nc1cccc(CC)c1)C(=O)NO` (centres unmarked) [Compound 167201, 2-(3-Ethyl-phenylamino)-hexanoic acid hydroxyamide], the affinity, expressed as Ki, was 89800 nM.

As for `Cc1cc(N[C@H](CCCCNCc2ccccc2)C(=O)NO)ccc1F` [Compound 167980, (R)-6-Benzylamino-2-(4-fluoro-3-methyl-phenylamino)-hexanoic acid hydroxyamide], the Ki is 150 nM.

The compound `Cc1cc(N[C@H](CCCCNS(=O)(=O)c2ccc(N(C)C)cc2)C(=O)NO)cc(C)c1F` [Compound 167699, (R)-6-(4-Dimethylamino-benzenesulfonylamino)-2-(4-fluoro-3,5-dimethyl-phenylamino)-hexanoic acid hydroxyamide] displayed a Ki of 430 nM.

Regarding `CCCC(CCC)CNCCCC[C@@H](Nc1ccc(F)c(C)c1)C(=O)NO` [Compound 168167, (R)-2-(4-Fluoro-3-methyl-phenylamino)-6-(2-propyl-pentylamino)-hexanoic acid hydroxyamide], the affinity corresponds to a Ki of 250 nM.

Take `CCCCC(Nc1ccccc1OC)C(=O)NO` (centres unmarked) [Compound 167293, 2-(2-Methoxy-phenylamino)-hexanoic acid hydroxyamide]: the Ki was > 300000 nM.

Consider `CCCCC(Nc1ccc(C)cc1)C(=O)NO` (centres unmarked) [Compound 167255, 2-p-Tolylamino-hexanoic acid hydroxyamide], for which the Ki turned out to be 296000 nM.

Compound `Cc1cc(N[C@@H](C)C(=O)NO)cc(C)c1F` [Compound 167498, (S)-2-(4-Fluoro-3,5-dimethyl-phenylamino)-N-hydroxy-propionamide] gave a Ki of 51000 nM.

For `Cc1cc(N[C@H](CCCCNC(=O)Cc2ccc(-n3c(C)ccc3C)cc2)C(=O)NO)cc(C)c1F` [Compound 167592, (R)-6-{2-[4-(2,5-Dimethyl-pyrrol-1-yl)-phenyl]-acetylamino}-2-(4-fluoro-3,5-dimethyl-phenylamino)-hexanoic acid hydroxyamide], the Ki worked out at 1440 nM.

Turning to `Cc1cc(N[C@H](CCCCN(C)Cc2ccc(F)cc2)C(=O)NO)ccc1F` [Compound 168147, (R)-6-[(4-Fluoro-benzyl)-methyl-amino]-2-(4-fluoro-3-methyl-phenylamino)-hexanoic acid hydroxyamide], the Ki was found to be 190 nM.

In turn, `Cc1cc(N[C@H](CCCCNCc2ccccc2)C(=O)NO)cc(C)c1F` [Compound 167736, (R)-6-Benzylamino-2-(4-fluoro-3,5-dimethyl-phenylamino)-hexanoic acid hydroxyamide] gave a Ki of 110 nM.

`Cc1cc(N[C@H](CCCCN(Cc2ccc(F)cc2)Cc2ccc(F)cc2)C(=O)NO)ccc1F` [Compound 167963, (R)-6-[Bis-(4-fluoro-benzyl)-amino]-2-(4-fluoro-3-methyl-phenylamino)-hexanoic acid hydroxyamide] returned a Ki of 1100 nM.

Take `Cc1cc(N[C@H](CCCCNCC2CCCCC2)C(=O)NO)ccc1F` [Compound 168146, (R)-6-(Cyclohexylmethyl-amino)-2-(4-fluoro-3-methyl-phenylamino)-hexanoic acid hydroxyamide]: the Ki was determined as 250 nM.

For the compound `Cc1cc(N[C@H](CCCCNC(=O)OC(C)(C)C)C(=O)NO)cc(C)c1F` [Compound 167561, (R)-[5-(4-Fluoro-3,5-dimethyl-phenylamino)-5-hydroxycarbamoyl-pentyl]-carbamic acid tert-butyl ester], affinity was put at a Ki of 710 nM.

The compound `Cc1cc(N[C@H](CCCCNS(=O)(=O)c2cccc([N+](=O)[O-])c2)C(=O)NO)cc(C)c1F` [Compound 167622, (R)-2-(4-Fluoro-3,5-dimethyl-phenylamino)-6-(3-nitro-benzenesulfonylamino)-hexanoic acid hydroxyamide] registered a Ki of 150 nM.

Turning to `Cc1cc(N[C@H](CCCCNC(=O)OC(C)(C)C)C(=O)NO)ccc1F` [Compound 167926, (R)-[5-(4-Fluoro-3-methyl-phenylamino)-5-hydroxycarbamoyl-pentyl]-carbamic acid tert-butyl ester], the Ki worked out at 2900 nM.

With `Cc1cc(C(=O)NCCCC[C@@H](Nc2cc(C)c(F)c(C)c2)C(=O)NO)ccc1F` [Compound 167551, (R)-4-Fluoro-N-[5-(4-fluoro-3,5-dimethyl-phenylamino)-5-hydroxycarbamoyl-pentyl]-3-methyl-benzamide], the affinity, expressed as Ki, was 390 nM.

`Cc1cc(NC(Cc2ccc(OC(F)(F)F)cc2)C(=O)NO)ccc1F` (centres unmarked) [Compound 167233, 2-(4-Fluoro-3-methyl-phenylamino)-N-hydroxy-3-(4-trifluoromethoxy-phenyl)-propionamide]: the affinity corresponds to a Ki of 102000 nM.

In turn, `Cc1cc(N[C@H](CCCCNCc2cccc([N+](=O)[O-])c2)C(=O)NO)cc(C)c1F` [Compound 167737, (R)-2-(4-Fluoro-3,5-dimethyl-phenylamino)-6-(3-nitro-benzylamino)-hexanoic acid hydroxyamide] had a Ki of 70 nM.

The compound `Cc1cc(N[C@H](CCc2ccccc2)C(=O)NO)cc(C)c1F` [Compound 167406, (R)-2-(4-Fluoro-3,5-dimethyl-phenylamino)-N-hydroxy-4-phenyl-butyramide] had a Ki of 510 nM.
